Experimental data taken from US20220177476A1, “Crystal Forms of (S)-4-(8-amino-3-(1-(but-2-ynoyl)-pyrrolidin-2-yl)imidazo[1,5-a]pyrazin-1-yl)-n-(pyridin-2-yl)benzamide” (Acerta Pharma B.V., priority 2015, published 2022).
Converted amounts (≈) assume the structure as drawn.

How the values were obtained:
[1] = Approximate solubility of Form I by stepwise dilution of a suspension; format: physicochemical; conditions: thermodynamic from solid, read-out: Solubility [S, mg/mL]
Method: Form I was also tested with respect to solubilities in various water-solvent mixtures and non-aqueous solvents. Solubility studies were conducted by a stepwise dilution of a suspension of about 10 mg of Form I in 0.1 mL of analytical grade solvent. Solubility values are estimated approximations and are subject to variable experimental error.

[2] = Aqueous solubility after equilibrating at 25° C. for three days (HPLC); format: physicochemical; conditions: water, 25° C., three days
Method: Finally, Form II was tested with respect to solubilities in various water-solvent mixtures and non-aqueous solvents. […] High-performance liquid chromatography (HPLC) was used to determine the concentration of Form II in the filtered solution at approximately 14 μg/mL, which translates into a critical water activity (aw) of about 0.59.

[3] = Dynamic vapor sorption (DVS); format: physicochemical; conditions: DVS
Method: A gravimetric vapor sorption study was run using a standard procedure. Samples were run using a dynamic vapor sorption (DVS) analyzer. Sample sizes were approximately 10 mg. A moisture adsorption-desorption isotherm was performed as outlined below.

[4] = Solubility of Form I by HPLC in solvents and water-solvent mixtures; format: physicochemical; conditions: for solubility: organic solvent or mixture, thermodynamic from solid, read-out: Solubility (S, mg/mL)
Method: The solubility of recrystallized Formula (1) Form I was tested in various water-solvent mixtures and non-aqueous solvents.

[5] = Intrinsic dissolution rate (paddle over stationary disc); format: physicochemical
Method: The intrinsic dissolution rate (IDR) was measured for Forms I and II of the free base of Formula (1). IDR was measured using a paddle over stationary disc equipped dissolution apparatus with concentration determined using liquid chromatographic analysis against a standard. […] Form I has an IDR of 6.8 mg/cm^2/min in simulated gastric fluid (SGF) (pH 1.2) and an IDR of 0.44 mg/cm^2/min in pH 2.5 HCl/NaCl buffer. Form II has an IDR of 5.4 mg/cm^2/min in SGF and an IDR of 0.35 mg/cm^2/min in pH 2.5 HCl/NaCl buffer.

[6] = Plasma exposure after single oral administration in fasted beagle dogs; format: in vivo; conditions: nine fasted beagle dogs, single oral administration of 6 mg/kg, oral capsule
Method: The plasma exposure of Forms I and II of the free base of Formula (1) were compared in nine fasted beagle dogs after a single oral administration of 6 mg/kg of either form using batches with a similar particle size distribution. The experiment was performed in 5 weekly phases, with the Form II phase last. […] There was a good in vitro in vivo correlation for the dissolution rates of Form 1 and Form II, and the performance of each form of Formula (1) when delivered by oral capsule to dogs.

[7] = Human Phase 1 interaction study of calcium carbonate, omeprazole, or rifampin on Formula (1); format: in vivo; conditions: healthy adult subjects, acid reducing agents prior to administration
[8] = Relative stability of solid forms (water activity, suspension equilibration, storage); format: physicochemical
From the text: Critical water activity is a measure of the relative thermodynamic stability of Form I in comparison to the trihydrate Form II. […] Suspension equilibration experiments in ethanol-water mixtures, each having a different water activity, affirmed this conclusion. Water activities included in the experiments were maintained at: about 0.35 (ethanol-water ratio of 95:5, PP502-P32), about 0.53 (ethanol-water ratio of 9:1, PP502-P33) and about 0.77 (ethanol-water ratio of 7:3, PP502-P34).
Because the DVS results of Form II indicate reversible moisture sorption-desorption behavior (see above), tests were performed to confirm that storage of the dehydrated Form II sample (i.e., Form IV) at about 60% RH would again lead to the trihydrate form (Form II). […]

Structure (SMILES): CC#CC(=O)N1CCC[C@H]1c1nc(-c2ccc(C(=O)Nc3ccccn3)cc2)c2c(N)nccn12 [Form I, (S)-4-(8-amino-3-(1-(but-2-ynoyl)pyrrolidin-2-yl)imidazo[1,5-α]pyrazin-1-yl)-N-(pyridin-2-yl)benzamide]
- solubility ([1]; 2-propanol, organic solvent or mixture): < 1 mg/mL
- solubility ([1]; MEK saturated with water, organic solvent or mixture): 26 to 30 mg/mL (≈ 55.9 to 64.4 mM)
- solubility ([1]; THF:water 9:1, organic solvent or mixture): > 50 mg/mL
- solubility ([1]; acetic acid, organic solvent or mixture): 102 to 204 mg/mL (≈ 219 to 438 mM)
- solubility ([1]; acetic acid:MEK 1:9, organic solvent or mixture): 63 to 95 mg/mL (≈ 135 to 204 mM)
- solubility ([1]; acetic acid:ethyl acetate 1:1, organic solvent or mixture): 92 to 184 mg/mL (≈ 198 to 395 mM)
- solubility ([1]; acetic acid:ethyl acetate 1:9, organic solvent or mixture): 60 to 90 mg/mL (≈ 129 to 193 mM)
- solubility ([1]; acetic acid:isopropanol 1:9, organic solvent or mixture): ~4 mg/mL (≈ 8.59 mM)
- solubility ([1]; acetic acid:water 1:1, aqueous with cosolvent or surfactant or cyclodextrin): 104 to 208 mg/mL (≈ 223 to 447 mM)
- solubility ([1]; acetone, organic solvent or mixture): ~2 mg/mL (≈ 4.3 mM)
- solubility ([1]; acetone:water 4:1, organic solvent or mixture): 26 to 31 mg/mL (≈ 55.9 to 66.6 mM)
- solubility ([1]; acetonitrile, organic solvent or mixture): < 1 mg/mL
- solubility ([1]; ethanol, organic solvent or mixture): ~3 mg/mL (≈ 6.44 mM)
- solubility ([1]; ethanol:water 1:1, aqueous with cosolvent or surfactant or cyclodextrin): ~6 mg/mL (≈ 12.9 mM)
- solubility ([1]; ethanol:water 95:5, organic solvent or mixture): ~8 mg/mL (≈ 17.2 mM)
- solubility ([1]; ethyl acetate, organic solvent or mixture): < 1 mg/mL
- solubility ([1]; formic acid, organic solvent or mixture): 97 to 194 mg/mL (≈ 208 to 417 mM)
- solubility ([1]; methanol, organic solvent or mixture): ~14 mg/mL (≈ 30.1 mM)
- solubility ([1]; methanol:water 9:1, organic solvent or mixture): ~15 mg/mL (≈ 32.2 mM)
- solubility ([1]; organic solvent or mixture, 2-butanone, MEK): < 1 mg/mL
- solubility ([1]; organic solvent or mixture, N,N-dimethylformamide, DMF): 49 to 65 mg/mL (≈ 105 to 140 mM)
- solubility ([1]; organic solvent or mixture, N-methyl-2-pyrrolidone, NMP): 39 to 49 mg/mL (≈ 83.8 to 105 mM)
- solubility ([1]; organic solvent or mixture, dichloromethane, DCM): 36 to 43 mg/mL (≈ 77.3 to 92.4 mM)
- solubility ([1]; organic solvent or mixture, dimethyl sulfoxide, DMSO): 39 to 49 mg/mL (≈ 83.8 to 105 mM)
- solubility ([1]; organic solvent or mixture, ethanol:water 9:1 at 60° C.): > 60 mg/mL
- solubility ([1]; organic solvent or mixture, methanol:MEK 1:1 at reflux): > 90 mg/mL
- solubility ([1]; organic solvent or mixture, tetrahydrofuran, THF): ~5 mg/mL (≈ 10.7 mM)
- solubility ([1]; trifluoroethane, organic solvent or mixture): 97 to 194 mg/mL (≈ 208 to 417 mM)
- solid residue after aqueous solubility test (PXRD) [2]: Form I was retained
- hygroscopicity (DVS), in words [3]: not hygroscopic
- total weight gain observed between 0% RH and 80% RH [3]: about 0.17%
- water content at 50% RH [3]: approximately 0.25%
- water absorption within the timeframe of the test ([3]; at 95% RH): less than 0.3%
- hygroscopicity according to the European Pharmacopoeia (EP) classification ([3]; weight increase at 80% RH): non-hygroscopic (non-hygroscopic: <0.2%)
- maximum water content (saturation) at about 95% RH ([3]; listed as recrystallized Formula (1)): approximately 0.5%
- Solubility (S, mg/mL) ([4]; 1-propanol, 25° C.): 4.0 mg/mL (≈ 8.59 mM)
- Solubility (S, mg/mL) ([4]; ethyl acetate, 25° C.): 1.5 mg/mL (≈ 3.22 mM)
- solubility ([4]; 1-propanol, 5° C.): 3.4 mg/mL (≈ 7.3 mM)
- solubility ([4]; 1-propanol, 60° C.): 14.4 mg/mL (≈ 30.9 mM)
- solubility ([4]; 1-propanol, r.t.): 4.7 mg/mL (≈ 10.1 mM)
- solubility ([4]; 2-propanol, 25° C.): 1.3 mg/mL (≈ 2.79 mM)
- solubility ([4]; MEK, 25° C.): 3.7 mg/mL (≈ 7.95 mM)
- solubility ([4]; THF, 25° C.): 20.4 mg/mL (≈ 43.8 mM)
- solubility ([4]; acetone at RFT): 10 mg/mL (≈ 21.5 mM)
- solubility ([4]; acetone, 25° C.): 4.1 mg/mL (≈ 8.81 mM)
- solubility ([4]; ethanol, 5° C.): 3.6 mg/mL (≈ 7.73 mM)
- solubility ([4]; ethanol, 25° C.): 4.4 mg/mL (≈ 9.45 mM)
- solubility ([4]; ethanol, 50° C.): 10.2 mg/mL (≈ 21.9 mM)
- solubility ([4]; ethanol-water 9:1, 25° C.): 23.7 mg/mL (≈ 50.9 mM)
- solubility ([4]; ethanol-water 96:4, 0° C.): 6.7 mg/mL (≈ 14.4 mM)
- solubility ([4]; ethanol-water 96:4, 25° C.): 10 mg/mL (≈ 21.5 mM)
- solubility ([4]; ethanol-water 96:4, 60° C.): 24.7 mg/mL (≈ 53.1 mM)
- solubility ([4]; methanol, 25° C.): 19.9 mg/mL (≈ 42.7 mM)
- increase in IDR relative to Form II ([5]; at both conditions (SGF and pH 2.5 buffer)): ~26%
- intrinsic dissolution rate (IDR) ([5]; pH 2.5 HCl/NaCl buffer): 0.44 mg/cm^2/min
- intrinsic dissolution rate (IDR) ([5]; simulated gastric fluid (SGF) (pH 1.2)): 6.8 mg/cm^2/min
- exposure [6]: higher exposure in the beagle than Form II
- exposure after treatment with acid reducing agents [7]: significant decreases in exposure
- form recovered after suspension equilibration in methanol ([8]; 5° C., methanol, mixture of Forms (I), VI, and VII, five days): pure Form I was recovered
- relative thermodynamic stability of Form I and Form II ([8]; room temperature, depending on water activity): Below an aw of about 0.59, Form I is more stable
